Values after ≈ are worked out from the molar mass of the structure shown. Structures can show the parent of a compound that is named as a salt. Where two headings read alike, the source gives them in different places.
How the values were obtained:
[1] = test system: Cephalothinresistant E. coli (3 strains) and Kl. pneumoniae (2 strains); assay: MIC, two-fold serial agar dilution, group (G-)-Ib; assay type: cell-based; conditions: 5 strains; for MIC: Escherichia coli, read-out: Geometric Mean of MIC, (G-)-Ib, Mueller-Hinton agar
Experimental: (§1) In the primary evaluation of the compounds of this invention, the Minimum Inhibitory Concentrations (MIC's) of the compounds were determined by the two-fold serial agar dilution method in Mueller-Hinton agar against 32 strains of test organisms in six groups.
(G-)Ib: Cephalothinresistant E. coli (3 strains) and Kl. pneumoniae (2

[2] = test system: M. morganii (1 strain), Ent. cloacae (2 strains) and Ser. marcescens (2 strains); assay: MIC, two-fold serial agar dilution, group (G-)-II; assay type: cell-based; conditions: Mueller-Hinton agar, 5 strains; for MIC: read-out: Geometric Mean of MIC, (G-)-II
Experimental: as §1
(G-)II: M. morganii (1 strain), Ent. cloacae (2 strains) and Ser.

[3] = test system: Penicillinresistant S. aureus (5 strains); assay: MIC, two-fold serial agar dilution, group (G+)-Ib; assay type: cell-based; conditions: Mueller-Hinton agar, 5 strains; for MIC: Staphylococcus aureus, read-out: Geometric Mean of MIC, (G+)-Ib
Experimental: as §1
(G+)Ib: Penicillinresistant S. aureus (5 strains)

[4] = test system: Penicillinsensitive S. aureus (5 strains); assay: MIC, two-fold serial agar dilution, group (G+)-Ia; assay type: cell-based; conditions: for MIC: Staphylococcus aureus, read-out: Geometric Mean of MIC, (G+)-Ia
Experimental: as §1
(G+)Ia: Penicillinsensitive S. aureus (5 strains)

[5] = test system: Cephalothinsensitive E. coli (2 strains), Kl. pneumoniae (1 strain) and Pr. mirabilis (2 strains); assay: MIC, two-fold serial agar dilution, group (G-)-Ia; assay type: cell-based; conditions: 5 strains
Experimental: as §1
(G+)Ia: Cephalothinsensitive E. coli (2 strains), Kl. pneumoniae (1
strain) and Pr. mirabilis (2 strains)

[6] = test system: Ps. aeruginosa (7 strains); assay: MIC, two-fold serial agar dilution, group (G-)-III; assay type: cell-based; conditions: Mueller-Hinton agar; for MIC: Pseudomonas aeruginosa, read-out: Geometric Mean of MIC, (G-)-III
Experimental: as §1
(G-)III: Ps. aeruginosa (7 strains)

[7] = blood levels upon intramuscular administration to mice; assay type: in vivo; conditions: mouse, im, 20 mg/kg
Experimental: Table 2, below, gives the Protective Dose50 (PD50) in mice for a number of the compounds of Formula I against selected microorganisms. Table 3 gives blood levels of various compounds of Formula I upon intramuscular administration of the test compounds to mice at a dosage of 20 mg/kg.

[8] = Mueller-Hinton agar, read-out: Geometric Mean of MIC, (G-)-Ia

Which results are given for `CON=C(C(=O)NC1C(=O)N2C(C(=O)[O-])=C(/C=C/C[n+]3cccc(NC=O)c3)CSC12)c1nsc(N)n1` (stereo not drawn) [Compound I-1F, 7-[2-(5-Amino-1,2,4-thiadiazol-3-yl)-2-methoxyiminoacetamido]-3-[3-(3-formylaminopyridinio)-1-propen-1-yl]-3-cephem-4-carboxylate]?
MIC [1]: 0.033 µg/mL (≈ 0.0606 µM); MIC [2]: 0.099 µg/mL (≈ 0.182 µM); MIC [3]: 0.4 µg/mL (≈ 0.735 µM); MIC ([4]; Mueller-Hinton agar, 5 strains): 0.15 µg/mL (≈ 0.275 µM); MIC [5, 8]: 0.0094 µg/mL (≈ 0.0173 µM); MIC [6]: 1.2 µg/mL (≈ 2.2 µM)

For `CON=C(C(=O)NC1C(=O)N2C(C(=O)[O-])=C(C=CC[n+]3ccccc3)CSC12)c1nsc(N)n1` (stereo not drawn) [I-IB E/Z = 1/4, 7-[2-(5-Amino-1,2,4-thiadiazol-3-yl)-2-methoxyiminoacetamido]-3-[3-pyridinio-1-propen-1-yl]-3-cephem-4-carboxylate], which MIC [1] is on record?
The MIC was 0.11 µg/mL (≈ 0.219 µM).

What about the MIC [2] of the same compound?
The MIC was 0.35 µg/mL (≈ 0.698 µM).

What about the MIC [3] of the same compound?
The MIC was 0.8 µg/mL (≈ 1.6 µM).

And the MIC ([4]; Mueller-Hinton agar, 5 strains)?
Its MIC is 0.35 µg/mL (≈ 0.698 µM).

What about the MIC ([5]; read-out: Geometric Mean of MIC, (G-)-Ia, Mueller-Hinton agar) of the same compound?
Its MIC is 0.05 µg/mL (≈ 0.0997 µM).

And the MIC [6]?
The MIC was 3.5 µg/mL (≈ 6.98 µM).

What does the source list for `CON=C(C(=O)NC1C(=O)N2C(C(=O)[O-])=C(/C=C/C[n+]3ccc(CO)cc3)CSC12)c1nsc(N)n1` (stereo not drawn) [Compound I-1L, 7-[2-(5-Amino-1,2,4-thiadiazol-3-yl)-2-methoxyiminoacetamido]-3-[3-(4-hydroxymethylpyridinio)-1-propen-1-yl]-3-cephem-4-carboxylate]?
MIC [1]: 0.088 µg/mL (≈ 0.166 µM); MIC [2]: 0.15 µg/mL (≈ 0.282 µM); MIC [3]: 0.61 µg/mL (≈ 1.15 µM); MIC ([4]; Mueller-Hinton agar, 5 strains): 0.26 µg/mL (≈ 0.489 µM); MIC [5, 8]: 0.029 µg/mL (≈ 0.0546 µM); MIC [6]: 2.6 µg/mL (≈ 4.89 µM)

What does the source list for `CON=C(C(=O)NC1C(=O)N2C(C(=O)[O-])=C(C=CC[N+]3(C)CCCC3)CSC12)c1nsc(N)n1` (stereo not drawn) [I-1A E/Z = 7/1, 7-[2-(5-Amino-1,2,4-thiadiazol-3-yl)-2-methoxyiminoacetamido]-3-[3-(1-methylpyrrolidinio)-1-propenyl]-3-cephem-4-carboxylate sulfate]?
Geometric Mean of MIC, (G-)-Ib ([1]; Mueller-Hinton agar, sulfate): 0.05 µg/mL; Geometric Mean of MIC, (G-)-II ([2]; sulfate): 0.17 µg/mL; Geometric Mean of MIC, (G+)-Ib ([3]; sulfate): 0.35 µg/mL; Geometric Mean of MIC, (G+)-Ia ([4]; Mueller-Hinton agar, 5 strains, sulfate): 0.13 µg/mL; Geometric Mean of MIC, (G-)-Ia ([5]; Mueller-Hinton agar, sulfate): 0.029 µg/mL; Geometric Mean of MIC, (G-)-III ([6]; sulfate): 1.4 µg/mL

With `C=CCON=C(C(=O)NC1C(=O)N2C(C(=O)[O-])=C(/C=C/C[n+]3ccc(C(N)=O)cc3)CSC12)c1nsc(N)n1` (stereo not drawn) [Compound I-3H, 7-[2-(Amino-1,2,4-thiadiazol-3-yl)-2-(propen-3-yloxyimino)acetamido]-3-[3-(4-carbamoylpyridinio)-1-propenyl]-3-cephem-4-carboxylate] as the compound, how does the MIC [1] read?
Its MIC is 0.1 µg/mL (≈ 0.175 µM).

What about the AUC [7] of the same compound?
Its AUC is 25000 ng·h/mL.

What about the Cmax [7] of the same compound?
Its Cmax is 19000 ng/mL.

And the half-life [7]?
The half-life was 47 min.

And the MIC [2]?
The MIC was 0.52 µg/mL (≈ 0.911 µM).

What about the MIC [3] of the same compound?
The MIC was 0.4 µg/mL (≈ 0.701 µM).

What about the MIC ([4]; Mueller-Hinton agar, 5 strains) of the same compound?
The MIC was 0.23 µg/mL (≈ 0.403 µM).

What about the MIC [5, 8] of the same compound?
The MIC was 0.057 µg/mL (≈ 0.0999 µM).

And the MIC [6]?
Its MIC is 1.9 µg/mL (≈ 3.33 µM).

Which MIC [1] does the source give for `CON=C(C(=O)NC1C(=O)N2C(C(=O)[O-])=C(/C=C/C[n+]3cccc(N)c3)CSC12)c1nsc(N)n1` (stereo not drawn) [Compound I-1E, 7-[2-(5-Amino-1,2,4-thiadiazol-3-yl)-2-methoxyiminoacetamido]-3-[3-(3-aminopyridinio)-1-propen-1-yl]-3-cephem-4-carboxylate] here?
The MIC was 0.029 µg/mL (≈ 0.0561 µM).

And the MIC [2]?
The MIC was 0.1 µg/mL (≈ 0.194 µM).

And the MIC [3]?
The MIC was 0.4 µg/mL (≈ 0.774 µM).

What about the MIC [4] of the same compound?
Its MIC is 0.2 µg/mL (≈ 0.387 µM).

And the MIC [5, 8]?
Its MIC is 0.0094 µg/mL (≈ 0.0182 µM).

And the MIC [6]?
The MIC was 1.4 µg/mL (≈ 2.71 µM).

For `CON=C(C(=O)NC1C(=O)N2C(C(=O)[O-])=C(/C=C/C[n+]3cccc(CN)c3)CSC12)c1nsc(N)n1` (stereo not drawn) [Compound I-1I, 7-[2-(5-Amino-1,2,4-thiadiazol-3-yl)-2-methoxyiminoacetamido]-3-[3-(3-aminomethylpyridinio)-1-propen-1-yl]-3-cephem-4-carboxylate], which MIC [1] is on record?
The MIC was 0.2 µg/mL (≈ 0.377 µM).

And the MIC [2]?
Its MIC is 0.69 µg/mL (≈ 1.3 µM).

And the MIC [3]?
Its MIC is 1.6 µg/mL (≈ 3.02 µM).

What about the MIC ([4]; Mueller-Hinton agar, 5 strains) of the same compound?
The MIC was 0.8 µg/mL (≈ 1.51 µM).

And the MIC [5, 8]?
The MIC was 0.1 µg/mL (≈ 0.188 µM).

And the MIC [6]?
Its MIC is 3.1 µg/mL (≈ 5.84 µM).

Which MIC [1] does the source give for `CON=C(C(=O)NC1C(=O)N2C(C(=O)[O-])=C(/C=C/C[n+]3ccc(SCC(=O)O)cc3)CSC12)c1nsc(N)n1` (stereo not drawn) [Compound I-1Q, 7-[2-(5-Amino-1,2,4-thiadiazol-3-yl)-2-methoxyiminoacetamido]-3-[3-(4-carboxymethylthiopyridinio)-1-propenyl]-3-cephem-4-carboxylate] here?
Its MIC is 0.044 µg/mL (≈ 0.0744 µM).

What about the MIC [2] of the same compound?
The MIC was 0.23 µg/mL (≈ 0.389 µM).

And the MIC [3]?
The MIC was 0.92 µg/mL (≈ 1.55 µM).

What about the MIC ([4]; Mueller-Hinton agar, 5 strains) of the same compound?
Its MIC is 0.7 µg/mL (≈ 1.18 µM).

And the MIC [5, 8]?
Its MIC is 0.0095 µg/mL (≈ 0.0161 µM).

And the MIC [6]?
Its MIC is 14 µg/mL (≈ 23.7 µM).

Reference: patent publication US4751295A, “Cephalosporin derivatives” (Bristol-Myers Company, priority 1986, dated 1988)
